Assay results from patent US10723726B2, “Solid forms of (Z)-4-(5-((3-benzyl-4-oxo-2-thioxothiazolidin-5-ylidene)methyl)furan-2-yl)benzoic acid” (GB006, INC., priority 2015, dated 2020).
Where a name gives a salt, the structure may show the parent alone. Values belong to the molecule of their own block, whether it stands above or below them.

Key:
in vivo [1] = conditions: C57BL/6, mouse
Protocol: A mouse melanoma tumor cell line, B16-F10, was used for developing a subcutaneous tumor model. 0.1×10^6 cells were injected subcutaneously in the right flank region of the animal. When the tumors reached ˜45 mm^3 the animals were randomized into various groups, each group with 10 animals, so that the average tumor volume of all the groups was similar. Animals were treated from the day of randomization (Day 1). Tumor dimensions (length and diameter) were measured for all animals three times per week, including the termination day of the study. In addition, throughout the study period, mice were monitored daily for clinical conditions. […] Portions of the blood samples were used for blood analysis and clinical chemistry. Lung, heart, liver, spleen, and kidneys were also collected and histopathological analysis was performed.

in vivo [2] = conditions: male
Protocol: Test system: Healthy Beagle dog weighing 10-12 kg (age 10 months), males were used for the study. Crossover design was adopted for the experiments wherein 03 dogs were used in the study for oral and intravenous administration. The animals were housed stainless steel cage provided with a hopper to hold pellet feed and a separate water hopper. Temperature and humidity was maintained at 23±5° C. and 30-70%, respectively. The illumination was controlled to give a sequence of 12 h light and 12 h dark cycle. All the animals were adapted to the experimental conditions for at least 5 days prior to dosing. All animals were provided with Pedigree™ standard pellet feed, except for 10 to 12 h before treatment and 4 h after the drug administration. Water was provided ad libidum.
Formulation and drug administration: 251.02 mg of test item was transferred in to a clean mortar. Test item was ground uniformly using pestle. 1.235 ml of Tween 80 was added and the material was mixed. A small quantity of 0.5% (w/v) methylcellulose in water was added and the mixture was triturated. 0.5% methyl cellulose was added to make a final volume of 190 ml. Finally the above formulation was transferred to a pre-labeled beaker and sonicated for five minutes. Suspension was dosed under stirring conditions by placing on a magnetic stirrer.
The dose formulation of LA-1.choline was administered by oral gavage using a feeding gavage tube. The required volume of dose formulation (5 ml/kg body weight) was draw up into a graduated syringe. The dog was properly restrained with the help of another person so as to restrict movement. The feeding tube was inserted slowly in the mouth through the space between cheek and the teeth towards esophagus to the stomach. Proper placement of tube was confirmed by dipping the outside end of tube in a container with water and looking for air bubbles. Absence of air bubbles confirmed the location of tube in the stomach. The required dose volume of LA-1.choline suspension was slowly administered through the feeding tube. Air was pushed through at the end to ensure empting of the tube. The tube was slowly taken out and discarded.
Intravenous drug formulation: Accurately weighed 27.49 mg of test item was transferred in to the clean tube. A volume of 0.417 mL DMSO was added and mixed until the test dissolves completely. A volume 0.417 mL of Solutol:alcohol (1:1, v/v) was added and mixed, to this, 7.496 mL of normal saline was added and vortexed. Finally, the above formulation was used for dosing.
The required volume of dose formulation (0.2 ml/kg body weight) of LA-1.choline was drawn up into a graduated syringe. Air bubbles were removed from the syringe before dosing. The dog was restrained in the standing position. The upper portion of injection site of cephalic vein was compressed and the needle of the butterfly vein catheter sized 22G was slowly inserted in the vein. Once blood reached the end of the catheter tube, it was connected to the syringe. The dose formulation was immediately injected slowly. At the end of administration, approximately 0.5 mL of normal saline was injected via catheter to ensure the required dose volume was administrated. Last, the needle was removed.
Sample collection: Post-dosing ˜1.5 ml of blood sample from each dog for the following time points 0.25, 0.5, 1, 1.5, 2, 3, 5, 8, 10 and 24 h was collected from the jugular vein into K2EDTA containing pre-labeled vacutainer centrifuge tubes. Plasma was obtained by centrifuging blood samples at 2500 g for 10 min. under refrigeration (2-4° C.) within 0.5 h of sampling. The obtained plasma samples were transferred into pre-labeled microcentrifuge tubes (approximately ˜300 μl) and stored at or below −70±10° C. The sample labels include details such as study number, test item code and dose group and/or day of sampling, animal number, time point.
Extraction procedure: The plasma separated from the whole blood was used for bio-analysis.

[3] = Beagle, dog, iv, 0.5 mg/kg, Plasma concentration
[4] = Beagle, dog, po, 5 mg/kg, Mean conc.
[5] = Beagle, dog, po, 5 mg/kg, Plasma concentration
[6] = beagle, dog, iv, 0.5 mg/kg, Mean conc.
[7] = beagle, dog, iv, 0.5 mg/kg, Plasma concentration
[8] = beagle, dog, po, 5 mg/kg, Plasma concentration

concentration at 0.5 h (in vivo [1]; exposure in blood at end of study): 383 ± 450 ng/mL | concentration at 0.5 h (in vivo [1]; exposure in tumor at end of study): 24.7 ± 17.6 ng/mL
Structure (SMILES): O=C(O)c1ccc(-c2ccc(/C=C3\SC(=S)N(Cc4ccccc4)C3=O)o2)cc1 [LA1, (Z)-4-(5-((3-benzyl-4-oxo-2-thioxothiazolidin-5-ylidene)methyl)furan-2-yl)benzoic acid]

concentration at 0.25 h (in vivo [2]; [3]): 723 ng/mL | concentration at 0.5 h (in vivo [2]; [3]): 501 ng/mL | concentration at 1 h (in vivo [2]; [3]): 397 ng/mL | concentration at 2 h (in vivo [2]; [3]): 203 ng/mL | concentration at 3 h (in vivo [2]; [3]): 265 ng/mL | concentration at 5 h (in vivo [2]; [3]): 67.7 ng/mL | concentration at 8 h (in vivo [2]; [3]): 44.4 ng/mL | concentration at 10 h (in vivo [2]; [3]): 19.8 ng/mL | Plasma concentration (in vivo [2]; Beagle, dog, po, 5 mg/kg, 0.5 h): 2776 ng/mL | Plasma concentration (in vivo [2]; Beagle, dog, po, 5 mg/kg, 1 h): 2706 ng/mL | Plasma concentration (in vivo [2]; Beagle, dog, po, 5 mg/kg, 2 h): 2055 ng/mL | Plasma concentration (in vivo [2]; Beagle, dog, po, 5 mg/kg, 3 h): 2510 ng/mL | Plasma concentration (in vivo [2]; Beagle, dog, po, 5 mg/kg, 5 h): 429 ng/mL | concentration at 0.25 h (in vivo [2]; [4]): 1100 ng/mL | concentration at 0.5 h (in vivo [2]; [4]): 1880 ng/mL | concentration at 1 h (in vivo [2]; [4]): 1890 ng/mL | concentration at 2 h (in vivo [2]; [4]): 1520 ng/mL | concentration at 3 h (in vivo [2]; [4]): 1960 ng/mL | concentration at 5 h (in vivo [2]; [4]): 414 ng/mL | concentration at 8 h (in vivo [2]; [4]): 150 ng/mL | concentration at 10 h (in vivo [2]; [4]): 128 ng/mL | concentration at 24 h (in vivo [2]; [4]): 16.9 ng/mL | concentration at 0.5 h (in vivo [2]; [5]): 1870 ng/mL | concentration at 1 h (in vivo [2]; [5]): 1660 ng/mL | concentration at 2 h (in vivo [2]; [5]): 1480 ng/mL | concentration at 3 h (in vivo [2]; [5]): 1810 ng/mL | concentration at 5 h (in vivo [2]; [5]): 442 ng/mL | Dog Cl (in vivo [2]; beagle): 3.9 mL/min/kg | bioavailability (in vivo [2]; beagle, dog, Absolute oral bioavailability): 50.6% | clearance (in vivo [2]; beagle, dog, Dog Cl (ml/min/kg)): 3.92 mL/min/kg | bioavailability (in vivo [2]; beagle, dog, Dog F % (absolute oral bioavailability)): 43.4% | AUC0-t (in vivo [2]; beagle, dog, iv, 0.5 mg/kg): 1330 ng·h/mL | AUC(0-inf) (in vivo [2]; beagle, dog, iv, 0.5 mg/kg): 1350 ng·h/mL | Cmax (in vivo [2]; beagle, dog, iv, 0.5 mg/kg): 2040 ng/mL | Vd (in vivo [2]; beagle, dog, iv, 0.5 mg/kg): 0.00072 L | Plasma concentration (in vivo [2]; beagle, dog, iv, 0.5 mg/kg, 0.25 h): 843 ng/mL | Plasma concentration (in vivo [2]; beagle, dog, iv, 0.5 mg/kg, 0.5 h): 548 ng/mL | Plasma concentration (in vivo [2]; beagle, dog, iv, 0.5 mg/kg, 1 h): 405 ng/mL | clearance (in vivo [2]; beagle, dog, iv, 0.5 mg/kg, Cl): 0.0065 mL/min | half-life (in vivo [2]; beagle, dog, iv, 0.5 mg/kg, Half life): 2.15 h | concentration at 0.25 h (in vivo [2]; [6]): 851 ng/mL | concentration at 0.5 h (in vivo [2]; [6]): 641 ng/mL | concentration at 1 h (in vivo [2]; [6]): 508 ng/mL | concentration at 2 h (in vivo [2]; [6]): 297 ng/mL | concentration at 3 h (in vivo [2]; [6]): 421 ng/mL | concentration at 5 h (in vivo [2]; [6]): 109 ng/mL | concentration at 8 h (in vivo [2]; [6]): 44.1 ng/mL | concentration at 10 h (in vivo [2]; [6]): 27.6 ng/mL | concentration at 0.25 h (in vivo [2]; [7]): 987 ng/mL | concentration at 0.5 h (in vivo [2]; [7]): 874 ng/mL | concentration at 1 h (in vivo [2]; [7]): 721 ng/mL | concentration at 24 h (in vivo [2]; [7]): 15.8 ng/mL | AUC0-t (in vivo [2]; beagle, dog, po, 3 mg/kg): 2570 ng·h/mL | AUC(0-inf) (in vivo [2]; beagle, dog, po, 3 mg/kg): 2690 ng·h/mL | Cmax (in vivo [2]; beagle, dog, po, 3 mg/kg): 685 ng/mL | Tmax (in vivo [2]; beagle, dog, po, 3 mg/kg): 4 h | half-life (in vivo [2]; beagle, dog, po, 3 mg/kg, Half life): 2.11 h | Vdss (in vivo [2]; beagle, dog, po, 5 mg/kg): 0.83 L/kg | peak concentration (in vivo [2]; beagle, dog, po, 5 mg/kg): 2068 ng/mL | t1/2 (hr), oral half-life (in vivo [2]; beagle, dog, po, 5 mg/kg): 3.41 h | time of peak concentration post dose (in vivo [2]; beagle, dog, po, 5 mg/kg): 1.5 h | concentration at 0.5 h (in vivo [2]; [8]): 999 ng/mL | concentration at 1 h (in vivo [2]; [8]): 1310 ng/mL | concentration at 2 h (in vivo [2]; [8]): 1020 ng/mL | concentration at 3 h (in vivo [2]; [8]): 1560 ng/mL | concentration at 5 h (in vivo [2]; [8]): 370 ng/mL | concentration at 8 h (in vivo [2]; [8]): 107 ng/mL | concentration at 10 h (in vivo [2]; [8]): 158 ng/mL | half-life (in vivo [2]; beagle, dog, po, 5 mg/kg, t1/2 (hr), oral half-life): ~3.4 h
Structure (SMILES): O=C(O)c1ccc(-c2ccc(/C=C3\SC(=S)N(Cc4ccccc4)C3=O)o2)cc1 [LA1 choline salt]
